Test results: patent US20070105779A1, “Isolated, ssx-2 and ssx-2 related peptides useful as hla binders and ctl epitopes, and uses thereof” (priority 2002, published 2007)
Where “and” joins values, the source holds several entries; their conditions need not be identical. Equal values may be shown once. No end group written: not given here.

Assays:
LAU 50/4D7 = assay: 51Cr release assay with twelve known HLA-A2 binders, peptide specificity of LAU 50/4D7; assay type: cell-based, human; conditions: HLA-A2+ target cells, peptide added after 51Cr labeling
Procedure: In these assays, following ^51Cr labeling of the HLA-A2^+ target cells, peptides were added and then lysis was determined, as described supra.

T cell clone LAU 50/4D7 = assay: 51Cr release assay, T2 cells pulsed with serial dilutions of peptide, recognition by CTL clone LAU 50/4D7; assay type: cell-based, human; conditions: for EC50: T2 cells pulsed with peptide, read-out: 50% maximal lysis; for recognition by CTL clone LAU 50/4D7 (in words): 51Cr release assay
Procedure: CTL clone LAU 50/4D7 was used in a ^51Cr release assay using standard methods. In brief, cells of target cell line Me275, which is a melanoma line derived from the same patient as was LAU 50/4D7, were labeled with ^51Cr for one hour at 37° C., as were control cells “T2.” This line, more accurately referred to as “CEMx721.T2,” is described by Salter, et al., Immunogenetics 21:235-248 (1985).
Cells were washed, three times, and then were incubated with the LAU 50/4D7 cells, at various effector:target ratios (0.1/1, 1/1, 10/1, 100/1) Four hours after incubation at 37° C., chromium in the supernatant was measured. Percent specific lysis was calculated as: [formula]
To determine T cell recognition of the peptides, standard ^51Cr release assays were performed using T2 cells pulsed with serial dilutions of each peptide. The peptide dose required to induce half maximal lysis was determined.

HLA-A2 = target: T1, HLA-A2 (Homo sapiens, UniProt P04439, D140Y/D185E/D98H/E176V/E277Q/G131W/G231S/I119V/I121R/I166T/I218V/L300P/L318F/N151K/N90K/P208A/P217A/Q86G/Q94H/R138H/R169H/T345S); assay: functional competition assay for peptide binding to HLA-A2 (inhibition of tyrosinase 368-376 recognition by CTL clone LAU 156/34 on T2 cells); assay type: cell-based; conditions: for IC50: competitor peptide concentration for 50% inhibition of target cell lysis
T1 construct: using T2 cells, because these express HLA-A2; endogenous in cells; host or cells: T2 cells
Procedure: T cell recognition by clone LAU 50/4D7 and binding to HLA-A2 by these peptides were determined experimentally. Peptide binding to HLA-A2 was determined in a functional competition assay.

T cell clone LAU50/4D7 = assay: lysis assay, T2 cells pulsed with 1 μM peptide, T cell clone LAU50/4D7; assay type: cell-based, human; conditions: peptide 1 μM, 37° C. 1 hour, T2 targets, 4 hours with T cells
Procedure: In these assays, T2 cells were used as the target, and were incubated with each of the listed peptides, at a concentration of 1 μM, at 37° C. for 1 hour. The T2 cells were then washed to remove excess peptides, and the T cells were incubated with the peptide pulsed target T2 cells for 4 hours at 37° C.

[1] = relative to SEQ ID NO: 1 (=1), peptide dose for half maximal lysis, T2 cells, clone LAU 50/4D7
[2] = second table, similar assays, relative to SEQ ID NO: 1
[3] = relative to SEQ ID NO: 1 (=1), concentration for 50% inhibition of target cell lysis

| Compound | EC50 (T cell clone LAU 50/4D7; clone LAU 50/4D7) [nM] | IC50 (HLA-A2) [nM] | Relative Binding (HLA-A2; [3]) | Relative Binding (HLA-A2; relative to SEQ ID NO: 17 (=1)) | Relative Binding (HLA-A2; [2]) | recognition of known HLA-A2 presented peptides by LAU 50/4D7 (LAU 50/4D7) | Relative Recognition (T cell clone LAU 50/4D7; [1]) | Relative Recognition (T cell clone LAU 50/4D7; relative to SEQ ID NO: 17 (=1)) | Relative Recognition (T cell clone LAU 50/4D7; [2]) | % Lysis (T cell clone LAU50/4D7) | recognition by CTL clone LAU 50/4D7 (in words) (T cell clone LAU 50/4D7) | recognition by CTL clone LAU 50/4D7 (in words) (T cell clone LAU 50/4D7; listed as 1) |
| --- | --- | --- | --- | --- | --- | --- | --- | --- | --- | --- | --- | --- |
| NY-ESO-1157-165: known HLA-A2 binder peptide | – | – | – | – | – | failed to recognize | – | – | – | – | – | – |
| AAAPKAFYA [SEQ ID NO: 5] | 0.3 | 200 | 0.1 | 1 | 0.1 | – | 0.05 | 0.2 | 0.06 | – | – | – |
| AASEKIFYV [SEQ ID NO: 18] | 0.06 | – | – | – | – | – | – | 1 | – | – | at least equal to the natural peptide | – |
| gp100280-288: known HLA-A2 binder peptide | – | – | – | – | – | failed to recognize | – | – | – | – | – | – |
| gp100208-217: known HLA-A2 binder peptide (TITDQVPFSV; UniProt P40967 208-217, looked up, fragment) | – | – | – | – | – | failed to recognize | – | – | – | – | – | – |
| GLYDGMEHL [SEQ ID NO: 35, derives from MAGE-A10; HLA-A2; negative control] | – | – | – | – | – | – | – | – | – | 2% | – | – |
| CC[C@H](C)[C@H](NC(=O)[C@H](CCCCN)NC(=O)[C@@H]1CCCN1C(=O)[C@H](C)NC(=O)[C@H](C)NC(=O)[C@H](C)N)C(=O)N[C@@H](Cc1ccccc1)C(=O)N[C@@H](C)C(=O)N[C@@H](C)C(=O)O [SEQ ID NO: 6] | > 100 | 100 | 0.2 | 2 | 0.2 | – | 10^−5 | <10^−5 | <10^−5 | – | – | – |
| tyrosinase1-9: known HLA-A2 binder peptide (MLLAVLYCL; UniProt P14679 1-9, looked up, fragment) | – | – | – | – | – | failed to recognize | – | – | – | – | – | – |

Continued, in another order:

| EC50 (T cell clone LAU 50/4D7; clone LAU 50/4D7) [nM] | IC50 (HLA-A2) [nM] | Relative Binding (HLA-A2; [3]) | Relative Binding (HLA-A2; relative to SEQ ID NO: 17 (=1)) | Relative Binding (HLA-A2; [2]) | Compound | recognition of known HLA-A2 presented peptides by LAU 50/4D7 (LAU 50/4D7) | Relative Recognition (T cell clone LAU 50/4D7; [1]) | Relative Recognition (T cell clone LAU 50/4D7; relative to SEQ ID NO: 17 (=1)) | Relative Recognition (T cell clone LAU 50/4D7; [2]) | % Lysis (T cell clone LAU50/4D7) | recognition by CTL clone LAU 50/4D7 (in words) (T cell clone LAU 50/4D7) | recognition by CTL clone LAU 50/4D7 (in words) (T cell clone LAU 50/4D7; listed as 1) |
| --- | --- | --- | --- | --- | --- | --- | --- | --- | --- | --- | --- | --- |
| 0.06 | – | – | – | – | CC[C@H](C)[C@H](NC(=O)[C@H](CCCCN)NC(=O)[C@H](CCC(=O)O)NC(=O)[C@H](CO)NC(=O)[C@H](C)NC(=O)[C@@H](N)CCCCN)C(=O)N[C@@H](Cc1ccccc1)C(=O)N[C@@H](Cc1ccc(O)cc1)C(=O)N[C@H](C(=O)O)C(C)C [SEQ ID NO: 17, reference compound] | – | – | – | – | 70% and 68% | in the same range as that of SEQ ID NO: 1 | – |
| > 100 | 22 | 0.9 | 9 | 0.9 | AAAPAIFYA [SEQ ID NO: 4] | – | <10^−5 | <10^−5 | <10^−6 | – | – | – |
| 0.02 | 20 | 1 | 10 | – | AAAPKIFYA [SEQ ID NO: 1] | – | 1 | 3 | – | – | most active | at least equal to the natural peptide |
| 0.2 | 133 | 0.16 | 1.5 | 0.16 | AAAAKIFYA [SEQ ID NO: 3] | – | 0.1 | 0.3 | 0.1 | – | – | – |
| 2 | 286 | 0.07 | 0.7 | – | AAGPKIFYA [SEQ ID NO: 2] | – | 0.01 | 0.03 | – | – | – | – |
